In US20040002545A1, “Thiazole derivatives of 2-methoxyimino-2-(pyridinyloxymethyl)-phenyl-acetamides useful as fungicides” (priority 2003, published 2004):

What was measured:
Format in all cases: in vivo
[1] = system: Septoria tritici—SEPTTR; assay: Wheat leaf blotch greenhouse test, curative and protectant; parameters: scale not given here; details: for SEPTTR 3DC: 3DC (curative); for SEPTTR 7DP: 7DP (protectant)
Description: (§1) Pathogen propagation and host inoculation. Plants were inoculated with various pathogens 1-4 days before compound application (curative tests) and 1-7 days after compound application (protectant tests). For all wheat trials, compounds were applied at growth stage 1.2, when the second leaf was expanded to about ½ of its final size (12 days after seeds were first watered). Information on the growth stages of other plant species at the time compound application and on the propagation and inoculation procedures associated with each pathogen is given below.
SEPTTR: Fresh inoculum is prepared in a manner similar to that described for LEPTNO. In this case, a brownish layer of spores covers the entire surface of the PDA plate and only a few plates are needed to obtain a large number of spores. After incubation overnight in the 20° C. dew chamber, inoculated plants were continually misted for 3 days in a 20° C. greenhouse, then grown at 20° C. without mist until disease symptoms had fully developed (usually about 10 days).
(§2) LEPTNO: Fresh inoculum was prepared by streaking PDA plates with spore exudates from an older plate using a sterile spatula. The plates were incubated at 18° C. under black lights and typically produced large quantities of spores in pink exudate in 6-7 days. A small amount of tap water was poured onto several plates and spores were collected by scraping the exudates off the PDA surface into the water. The spore solutions were combined in a large beaker, diluted with 200-300 ml of water and filtered through a 180 u mesh screen. The spore concentration was determined using a hemacytometer and water was added to obtain a final concentration of 10^7 spores/ml. Approximately 3 large drops of Tween 20 were added for each 100 ml of volume and the spore solution was sprayed to run-off on wheat seedlings. Inoculated plants were placed in a 20° C. dew chamber overnight, then moved to a 20° C. greenhouse where they were continually misted (12 seconds of mist every minute) until disease symptoms were fully developed (8-10 days).

[2] = system: Septoria nodorum—LEPTNO; assay: Wheat glume blotch greenhouse test, curative and protectant; parameters: scale not given here; details: for LEPTNO 3DC: 3DC (curative); for LEPTNO 7DP: 7DP (protectant)
Description: as §1, §2

[3] = system: Erysiphe graminis—ERYSGT; assay: Wheat powdery mildew greenhouse test, curative and protectant; parameters: scale not given here; details: for ERYSGT 3DC: 3DC (curative); for ERYSGT 7DP: 7DP (protectant)
Description: as §1
ERYSGT: Wheat seedlings were infected with fresh spores from the obligate pathogen ERYSGT by shaking heavily infected wheat plants over them. Plants that had been dusted with ERYSGT spores were incubated in the greenhouse at 22° C. until disease symptoms had fully developed (usually 7 days).

[4] = system: Puccinia recondita—PUCCRT; assay: Wheat brown rust greenhouse test, curative and protectant; details: for PUCCRT 3DC: 3DC (curative); for PUCCRT 7DP: 7DP (protectant)
Description: as §1
PUCCRT: Spores of the obligate pathogen PUCCRT were collected from infected plants with a vacuum apparatus and stored at 4° C. Approximately 0.1 g of fresh spores (stored at 4° C. for less than 30 days) was mixed with several drops of Tween 20. The thick spore paste was diluted to 100 ml with water and sprayed to run-off on wheat seed seedlings. Plants inoculated with PUCCRT were kept in a 20° C. dew chamber overnight and then transferred to a 20° C. growth chamber where symptoms developed in 8-9 days.

| Molecule | SEPTTR 3DC ([1]; rate 15.5 g ai/ha) | SEPTTR 7DP ([1]; rate 15.5 g ai/ha) | SEPTTR 3DC ([1]; rate 31.3 g ai/ha) | SEPTTR 7DP ([1]; rate 31.3 g ai/ha) | SEPTTR 3DC ([1]; rate 62.5 g ai/ha) | SEPTTR 7DP ([1]; rate 62.5 g ai/ha) | SEPTTR 3DC ([1]; rate 125 g ai/ha) | SEPTTR 7DP ([1]; rate 125 g ai/ha) | LEPTNO 3DC ([2]; rate 15.5 g ai/ha) | LEPTNO 7DP ([2]; rate 15.5 g ai/ha) | LEPTNO 3DC ([2]; rate 31.3 g ai/ha) | LEPTNO 7DP ([2]; rate 31.3 g ai/ha) | LEPTNO 3DC ([2]; rate 62.5 g ai/ha) | LEPTNO 7DP ([2]; rate 62.5 g ai/ha) | LEPTNO 3DC ([2]; rate 125 g ai/ha) | LEPTNO 7DP ([2]; rate 125 g ai/ha) | PUCCRT 3DC ([4]; rate 15.5 g ai/ha) | PUCCRT 7DP ([4]; rate 15.5 g ai/ha) | PUCCRT 3DC ([4]; rate 31.3 g ai/ha) | PUCCRT 7DP ([4]; rate 31.3 g ai/ha) | other results |
| --- | --- | --- | --- | --- | --- | --- | --- | --- | --- | --- | --- | --- | --- | --- | --- | --- | --- | --- | --- | --- | --- |
| 2-[[[3-chloro-5-[5-[3-methylisothiazoly]]-2-pyridinyl]-oxy]methyl]-alpha-(methoxyimino)-N-methylbenzeneacetamide [Compound 1] | 22 | 53 | 59 | 88 | 85 | 76 | 99 | 91 | 58 | 46 | 60 | 50 | 53 | 95 | 71 | 98 | 93 | 80 | 99 | 94 | ERYSGT 3DC ([3]; rate 15.5 g ai/ha): 88; ERYSGT 7DP ([3]; rate 15.5 g ai/ha): 51; ERYSGT 3DC ([3]; rate 31.3 g ai/ha): 92; ERYSGT 7DP ([3]; rate 31.3 g ai/ha): 45; ERYSGT 3DC ([3]; rate 62.5 g ai/ha): 94; ERYSGT 7DP ([3]; rate 62.5 g ai/ha): 88; ERYSGT 3DC ([3]; rate 125 g ai/ha): 97; ERYSGT 7DP ([3]; rate 125 g ai/ha): 100; PUCCRT 3DC ([4]; rate 62.5 g ai/ha): 100; PUCCRT 7DP ([4]; rate 62.5 g ai/ha): 100; PUCCRT 3DC ([4]; rate 125 g ai/ha): 100; PUCCRT 7DP ([4]; rate 125 g ai/ha): 100 |
| CNC(=O)C(=NOC)c1ccccc1COc1ncc(-c2snc(C)c2Br)cc1C [Compound 2, 2-[[[3-methyl-5-[5-[4-bromo-3-methylisothiazolyl]]-2-pyridinyl]-oxy]methyl]-alpha-(methoxyimino)-N-methylbenzeneacetamide] | 97 | 85 | 83 | 85 | 90 | 96 | 95 | 97 | 65 | 65 | 73 | 79 | 47 | 84 | 67 | 98 | 50 | 100 | 63 | 100 | PUCCRT 3DC ([4]; rate 62.5 g ai/ha): 93; PUCCRT 7DP ([4]; rate 62.5 g ai/ha): 100; PUCCRT 3DC ([4]; rate 125 g ai/ha): 93; PUCCRT 7DP ([4]; rate 125 g ai/ha): 100 |
